Experimental data taken from article PMC3082371 (Bioorganic & medicinal chemistry letters, 2008).

Target: h5-HT2A receptor (Homo sapiens, UniProt P28223)
Experiment: [3H]ketanserin competitive radioligand binding assay
Settings: h5-HT2A Ki relative to parent compound AMDA (Ki = 20 nM)

Chain of h5-HT2A receptor (P28223 whole entry): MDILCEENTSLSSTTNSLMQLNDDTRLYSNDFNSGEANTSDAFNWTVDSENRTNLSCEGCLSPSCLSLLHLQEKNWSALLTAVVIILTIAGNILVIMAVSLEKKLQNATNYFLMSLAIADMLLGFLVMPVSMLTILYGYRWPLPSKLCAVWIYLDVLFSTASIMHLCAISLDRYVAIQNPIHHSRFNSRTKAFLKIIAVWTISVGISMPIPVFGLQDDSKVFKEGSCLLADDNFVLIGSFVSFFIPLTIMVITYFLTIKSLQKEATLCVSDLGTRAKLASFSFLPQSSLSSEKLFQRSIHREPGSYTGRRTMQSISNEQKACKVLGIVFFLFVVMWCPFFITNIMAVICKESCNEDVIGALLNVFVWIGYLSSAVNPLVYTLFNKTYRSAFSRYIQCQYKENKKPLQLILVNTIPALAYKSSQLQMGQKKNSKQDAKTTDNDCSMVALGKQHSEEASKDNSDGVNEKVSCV

SMILES: COc1cccc2c1C(CN)c1ccccc1C2 (stereo not drawn) [Compound 2, 1-methoxy AMDA]
- fold decrease in affinity compared to AMDA: > 50 fold

SMILES: COc1ccc2c(c1)C(CN)c1ccccc1C2 (stereo not drawn) [Compound 3, 2-methoxy-9-aminomethyl-9,10-dihydroanthracene]
- fold decrease in affinity compared to AMDA: > 50 fold

SMILES: COc1cccc2c1Cc1ccccc1C2CN (stereo not drawn) [Compound 5, 4-methoxy-AMDA]
- fold decrease in affinity compared to AMDA: 6 fold
